The values that follow come from patent US20240158418A1 (C4 Therapeutics, Inc., priority 2021, published 2024).

A value given as a limit tells only on which side of the number the result lay.

For one assay, the target named is T1, EGFR L858R-T790M (Homo sapiens, UniProt P00533, L858R/T790M).
T1 construct: NCI-H1975 (harboring EGFR heterozygous L858R-T790M mutations); host or cells: NCI-H1975
T1 sequence (P00533 25-1210 T790M/L858R): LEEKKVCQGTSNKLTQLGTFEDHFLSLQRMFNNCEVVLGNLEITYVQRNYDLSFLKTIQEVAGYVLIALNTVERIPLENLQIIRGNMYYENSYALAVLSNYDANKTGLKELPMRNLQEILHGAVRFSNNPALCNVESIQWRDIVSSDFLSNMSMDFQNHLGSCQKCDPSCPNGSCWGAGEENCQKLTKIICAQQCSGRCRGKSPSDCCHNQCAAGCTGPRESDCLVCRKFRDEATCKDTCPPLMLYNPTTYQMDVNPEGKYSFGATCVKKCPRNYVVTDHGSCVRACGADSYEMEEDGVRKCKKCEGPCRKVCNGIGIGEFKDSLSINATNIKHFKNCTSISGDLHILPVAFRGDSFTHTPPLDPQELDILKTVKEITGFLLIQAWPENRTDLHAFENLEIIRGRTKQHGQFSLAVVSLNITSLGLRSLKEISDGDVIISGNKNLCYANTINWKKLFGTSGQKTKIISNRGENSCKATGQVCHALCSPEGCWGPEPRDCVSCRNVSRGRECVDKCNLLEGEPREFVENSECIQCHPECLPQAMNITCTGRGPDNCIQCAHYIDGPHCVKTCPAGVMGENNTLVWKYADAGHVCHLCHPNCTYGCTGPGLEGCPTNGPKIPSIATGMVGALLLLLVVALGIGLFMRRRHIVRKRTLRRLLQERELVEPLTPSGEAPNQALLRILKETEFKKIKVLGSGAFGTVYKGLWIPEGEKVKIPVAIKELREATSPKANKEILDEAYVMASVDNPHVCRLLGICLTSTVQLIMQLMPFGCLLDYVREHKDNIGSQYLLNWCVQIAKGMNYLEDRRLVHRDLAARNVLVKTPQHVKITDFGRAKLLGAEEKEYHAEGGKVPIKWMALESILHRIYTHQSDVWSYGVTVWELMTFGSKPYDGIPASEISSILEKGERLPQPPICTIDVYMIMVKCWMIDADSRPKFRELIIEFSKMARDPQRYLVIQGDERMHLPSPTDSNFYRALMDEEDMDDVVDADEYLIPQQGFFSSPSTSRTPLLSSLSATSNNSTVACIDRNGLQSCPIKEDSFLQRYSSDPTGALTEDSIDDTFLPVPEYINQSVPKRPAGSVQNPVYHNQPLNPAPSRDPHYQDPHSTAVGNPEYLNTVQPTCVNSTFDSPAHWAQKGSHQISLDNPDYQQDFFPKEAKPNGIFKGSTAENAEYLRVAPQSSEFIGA
Nature of the assay: EGFR degradation, Total EGFR (L858R-specific) HTRF, NCI-H1975. To be noted: Table 9A; NCI-H1975 cells, 6 hours, Total EGFR HTRF; read-out: H1975 EGFR DC50. It counts as cell-based. The text has this: NCI-H1975 (harboring EGFR heterozygous L858R-T790M mutations) and NCI-H3255 (harboring EGFR heterozygous L858R mutation) were purchased from ATCC and NCI, respectively. NCI-H1975+CS (harboring EGFR heterozygous L858R-T790M-C797S mutations) was generated using CRISPR technology to introduce the additional C797S mutation by Horizon Discovery. A431 (harboring EGFR wildtype) was purchased from ATCC. RPMI 1640 no-phenol red medium and fetal bovine serum (FBS) were purchased from Gibco (Grand Island, NY, USA). Cell culture flasks and 384-well microplates were acquired from VWR (Radnor, PA, USA). Phosphorylated (pY1068) EGFR and Total EGFR (using L858R-specific detection antibody and pan-EGFR antibody for EGFR mutant cell lines and EGFR wild-type cell lines, respectively) HTRF assay kits were purchased from Cisbio (Bedford, MA, USA).
Degradation of EGFR protein containing L858R mutation or wild-type was determined based on quantification of FRET signal using a Total EGFR (L858R-specific or pan-EGFR detecting) HTRF assay kit. Phospho-EGFR (pEGFR) inhibition was determined based on quantification of FRET signal using a pY1068 EGFR HTRF assay kit. In separate assay plates, test compounds were added to the 384-well plate from a top concentration of 10 μM with 11 points, half log titration in duplicates. For each assay, 12.5 uL of cells suspended in assay media (RPMI 1640 no-phenol red medium+10% FBS) at cell densities indicated for each cell line in Table 8 below were dispensed using a multi-channel pipette to 384-well low volume white HTRF microplates containing a duplicate concentration range of test compounds and DMSO controls. The plates were kept at 37° C. with 5% CO2 for 6 hours and then incubated with either phospho EGFR or Total EGFR HTRF detection antibodies according to the cell line and EGFR mutant being assayed. Cells treated in the absence of the test compound were the negative control. Positive control was set by wells containing all reagents but no cells. FRET signal was acquired on EnVision™ Multilabel Reader (PerkinElmer, Santa Clara, CA, USA). Compound concentration that achieves 50% degradation and inhibition was reported as DC50 and IC50, respectively.
(In general: TR-FRET usually uses a lanthanide donor and a delayed reading to cut background.)
As a reminder, the DC50 is the concentration at which degradation of the target reaches its halfway point. With `O=C1CCC(Nc2ccc(C3CCN(CC(=O)N4CCN(c5ccc(-c6cc(Cl)c7cn(C(C(=O)Nc8nccs8)c8ncn9c8CCC9)nc7c6Cl)cc5)CC4)CC3)cc2)C(=O)N1` (racemic) [Compound 61, (2RS)-2-[4,7-Dichloro-6-[4-[4-[2-[4-[4-[[(3RS)-2,6-dioxo-3-piperidyl]amino]phenyl]-1-piperidyl]acetyl]piperazin-1-yl]phenyl]indazol-2-yl]-2-(6,7-dihydro-5H-pyrrolo[1,2-c]imidazol-1-yl)-N-thiazol-2-yl-acetamide], the DC50 lay in the range of 50 to 150 nM. On to `O=C1CCC(N2Cc3c(OC4CCN(C(=O)CCCN5CCN(c6ccc(-c7ccc8cn(C(C(=O)Nc9nccs9)c9ncn%10c9CCC%10)nc8c7F)cn6)CC5)CC4)cccc3C2=O)C(=O)N1` (racemic) [Compound 62, (2RS)-2-(6,7-Dihydro-5H-pyrrolo[1,2-c]imidazol-1-yl)-2-[7-fluoro-6-[6-[4-[4-oxo-4-[4-[1-oxo-2-[(3RS)-2,6-dioxo-3-piperidyl]isoindolin-4-yl]oxy-1-piperidyl]butyl]piperazin-1-yl]-3-pyridyl]indazol-2-yl]-N-thiazol-2-yl-acetamide], for which the DC50 was below 50 nM. In the case of `O=C1CCC(Nc2ccc(C3CCN(CC(=O)N4CCN(c5ccc(-c6ccc7cn(C(C(=O)Nc8nccs8)c8ncn9c8CCC9)nc7c6F)cn5)CC4)CC3)cc2)C(=O)N1` (racemic) [Compound 63, (2RS)-2-(6,7-Dihydro-5H-pyrrolo[1,2-c]imidazol-1-yl)-2-[7-fluoro-6-[6-[4-[2-[4-[4-[[(3RS)-2,6-dioxo-3-piperidyl]amino]phenyl]-1-piperidyl]acetyl]piperazin-1-yl]-3-pyridyl]indazol-2-yl]-N-thiazol-2-yl-acetamide], the DC50 was in the range of 50 to 150 nM.

The assay is the same for the next values; noted with them: Table 9B; NCI-H1975 cells, 6 hours, Total EGFR HTRF; read-out: H1975 EGFR DC50.
As for `COc1cc(N2CCC(O)(CC(=O)N3CC4(C3)CN(c3ccc(-c5cc(F)c6c(c5)C(=O)N(C(C(=O)Nc5nccs5)c5ncn7c5CCC7)C6)cc3)C4)CC2)c(F)cc1NC1CCC(=O)NC1=O` (single isomer, unassigned) [Compound 173, 2-(6,7-dihydro-5H-pyrrolo[1,2-c]imidazol-1-yl)-2-[6-[4-[2-[2-[1-[4-[[2,6-dioxo-3-piperidyl]amino]-2-fluoro-5-methoxy-phenyl]-4-hydroxy-4-piperidyl]acetyl]-2,6-diazaspiro[3.3]heptan-6-yl]phenyl]-4-fluoro-1-oxo-isoindolin-2-yl]-N-thiazol-2-yl-acetamide], the DC50 was below 50 nM. On to `O=C1CCC(Nc2cc(F)c(N3CCC(O)(CC(=O)N4CC5(C4)CN(c4ccc(-c6cc(F)c7c(c6)C(=O)N(C(C(=O)Nc6nccs6)c6ncn8c6CCC8)C7)cc4)C5)CC3)c(F)c2)C(=O)N1` (single isomer, unassigned; isomer 1) [Compound 119, 2-(6,7-dihydro-5H-pyrrolo[1,2-c]imidazol-1-yl)-2-(6-(4-(6-(2-(1-(4-((2,6-dioxopiperidin-3-yl)amino)-2,6-difluorophenyl)-4-hydroxypiperidin-4-yl)acetyl)-2,6-diazaspiro[3.3]heptan-2-yl)phenyl)-4-fluoro-1-oxoisoindolin-2-yl)-N-(thiazol-2-yl)acetamide, isomer 1], for which the DC50 is below 50 nM. As to `O=C1CCC(Nc2ccc(N3CCC(O)(CC(=O)N4CC5(CCN(c6ccc(-c7cc(F)c8c(c7)C(=O)N(C(C(=O)Nc7nccs7)c7ncn9c7CCC9)C8)cc6)CC5)C4)CC3)c(Cl)c2)C(=O)N1` (single isomer, unassigned; isomer 1) [Compound 128, 2-[6-[4-[2-[2-[1-[2-chloro-4-[[2,6-dioxo-3-piperidyl]amino]phenyl]-4-hydroxy-4-piperidyl]acetyl]-2,7-diazaspiro[3.5]nonan-7-yl]phenyl]-4-fluoro-1-oxo-isoindolin-2-yl]-2-(6,7-dihydro-5H-pyrrolo[1,2-c]imidazol-1-yl)-N-thiazol-2-yl-acetamide, isomer 1], the DC50 was below 50 nM.

Consider `Cn1nc(N2CCC(=O)NC2=O)c2cc(F)c(C3CCN(CC(=O)N4CC5(C4)CN(c4ccc(-c6cc(F)c7c(c6)C(=O)N(C(C(=O)Nc6nccs6)c6ncn8c6CCC8)C7)cc4)C5)CC3(F)F)cc21` (single isomer, unassigned; isomer 1) [Compound 129, 2-(6,7-dihydro-5H-pyrrolo[1,2-c]imidazol-1-yl)-2-[6-[4-[2-[2-[4-[3-(2,4-dioxohexahydropyrimidin-1-yl)-5-fluoro-1-methyl-indazol-6-yl]-3,3-difluoro-1-piperidyl]acetyl]-2,6-diazaspiro[3.3]heptan-6-yl]phenyl]-4-fluoro-1-oxo-isoindolin-2-yl]-N-thiazol-2-yl-acetamide, isomer 1], for which the DC50 is below 50 nM.

In the case of `O=C1CCC(Nc2cc(F)c(N3CCC(O)(CC(=O)N4CC5(CCN(c6ccc(-c7cc(F)c8c(c7)C(=O)N(C(C(=O)Nc7nccs7)c7ncn9c7CCC9)C8)cc6)CC5)C4)CC3)c(F)c2)C(=O)N1` (single isomer, unassigned; isomer 1) [Compound 134, 2-(6,7-dihydro-5H-pyrrolo[1,2-c]imidazol-1-yl)-2-[6-[4-[2-[2-[1-[4-[[2,6-dioxo-3-piperidyl]amino]-2,6-difluoro-phenyl]-4-hydroxy-4-piperidyl]acetyl]-2,7-diazaspiro[3.5]nonan-7-yl]phenyl]-4-fluoro-1-oxo-isoindolin-2-yl]-N-thiazol-2-yl-acetamide, isomer 1], the DC50 is below 50 nM. `O=C1CCC(Nc2cc(F)c(N3CCC(O)(CC(=O)N4CCC5(CC4)CN(c4ccc(-c6cc(F)c7c(c6)C(=O)N(C(C(=O)Nc6nccs6)c6ncn8c6CCC8)C7)cc4)C5)CC3)c(F)c2)C(=O)N1` (single isomer, unassigned; isomer 1) [Compound 137, 2-(6,7-dihydro-5H-pyrrolo[1,2-c]imidazol-1-yl)-2-[6-[4-[7-[2-[1-[4-[2,6-dioxo-3-piperidyl]amino]-2,6-difluoro-phenyl]-4-hydroxy-4-piperidyl]acetyl]-2,7-diazaspiro[3.5]nonan-2-yl]phenyl]-4-fluoro-1-oxo-isoindolin-2-yl]-N-thiazol-2-yl-acetamide, isomer 1]: the DC50 fell in the range of 50 to 150 nM. Turning to `O=C1CCC(Nc2ccc(N3CCC(O)(CC(=O)N4CCC5(CC4)CN(c4ccc(-c6cc(F)c7c(c6)C(=O)N(C(C(=O)Nc6nccs6)c6ncn8c6CCC8)C7)cc4)C5)CC3)c(Cl)c2)C(=O)N1` (single isomer, unassigned; isomer 1) [Compound 138, 2-[6-[4-[7-[2-[1-[2-chloro-4-[[2,6-dioxo-3-piperidyl]amino]phenyl]-4-hydroxy-4-piperidyl]acetyl]-2,7-diazaspiro[3.5]nonan-2-yl]phenyl]-4-fluoro-1-oxo-isoindolin-2-yl]-2-(6,7-dihydro-5H-pyrrolo[1,2-c]imidazol-1-yl)-N-thiazol-2-yl-acetamide, isomer 1], the DC50 is below 50 nM. Regarding `O=C1CCC(Nc2cnc(N3CCC(O)(CC(=O)N4CC5(C4)CN(c4ccc(-c6cc(F)c7c(c6)C(=O)N(C(C(=O)Nc6nccs6)c6ncn8c6CCC8)C7)cc4)C5)CC3)c(F)c2)C(=O)N1` (single isomer, unassigned; isomer 1) [Compound 139, 2-(6,7-dihydro-5H-pyrrolo[1,2-c]imidazol-1-yl)-2-[6-[4-[2-[2-[1-[5-[[2,6-dioxo-3-piperidyl]amino]-3-fluoro-2-pyridyl]-4-hydroxy-4-piperidyl]acetyl]-2,6-diazaspiro[3.3]heptan-6-yl]phenyl]-4-fluoro-1-oxo-isoindolin-2-yl]-N-thiazol-2-yl-acetamide, isomer 1], the half-maximal degradation concentration (DC50) is below 50 nM.

As for `O=C1CCC(Nc2cc(F)c(N3CCC(O)(CC(=O)N4CC5(C4)CN(c4ccc(-c6cc(F)c7c(c6)C(=O)N(C(C(=O)Nc6nccs6)c6ncn8c6CCC8)C7)cc4)C5)CC3)c(Cl)c2)C(=O)N1` (single isomer, unassigned; isomer 1) [Compound 145, 2-[6-[4-[2-[2-[1-[2-chloro-4-[[2,6-dioxo-3-piperidyl]amino]-6-fluoro-phenyl]-4-hydroxy-4-piperidyl]acetyl]-2,6-diazaspiro[3.3]heptan-6-yl]phenyl]-4-fluoro-1-oxo-isoindolin-2-yl]-2-(6,7-dihydro-5H-pyrrolo[1,2-c]imidazol-1-yl)-N-thiazol-2-yl-acetamide, isomer 1], the DC50 fell in the range of 50 to 150 nM.
